The test system of data set [1] is MDA-MB-231. Description: Effect on total JAK2 level in human MDA-MB-231 cells at 1 to 10 uM preincubated for 12 hrs followed by […] stimulation after 45 mins by Western blot analysis. The data set is classed as ADME, cell-based. Conditions: mda-mb-231, 0.75 h. On the technique in general: Immunoblotting shows a protein as a band on a membrane.
In data set [2] the target is Epidermal growth factor receptor (Homo sapiens) (UniProt P00533). Description: Inhibition of EGFR (unknown origin) at 10 uM using peptide as substrate incubated for 10 mins by caliper assay relative to control.
Data set [3] addresses Fibroblast growth factor receptor 4 (Homo sapiens) (UniProt P22455). Description: Inhibition of FGFR4 (unknown origin) at 10 uM using peptide as substrate incubated for 10 mins by caliper assay relative to control.
Data set [4] addresses RAC-alpha serine/threonine-protein kinase (Homo sapiens) (UniProt P31749). Briefly: Inhibition of AKT1 (unknown origin) at 10 uM using peptide as substrate incubated for 10 mins by caliper assay relative to control.
In data set [5] the test system is MDA-MB-231. Briefly: Induction of apoptosis in human MDA-MB-231 cells assessed as early apoptotic cells at 1 uM after 24 hrs by Annexin V-FITC/propidium iodide staining-based flow cytometric analysis (reference value: 3.62%). It counts as functional. (In general: Flow cytometry measures light scatter and fluorescence of single cells or particles in a stream.)
The test system of data set [6] is MDA-MB-231. Description: Induction of apoptosis in human MDA-MB-231 cells assessed as viable cells at 10 uM after 24 hrs by Annexin V-FITC/propidium iodide staining-based flow cytometric analysis (reference value: 93.9 %). It counts as functional. The conditions noted are these: MDA-MB-231, 24 h, read-out: Activity.
In data set [7] the test system is MDA-MB-231. Briefly: Induction of apoptosis in human MDA-MB-231 cells assessed as early apoptotic cells at 10 uM after 24 hrs by Annexin V-FITC/propidium iodide staining-based flow cytometric analysis (reference value: 3.62%). The data set is classed as functional.
Data set [8] relates to MDA-MB-231. Description: Induction of apoptosis in human MDA-MB-231 cells assessed as necrotic cells at 10 uM after 24 hrs by Annexin V-FITC/propidium iodide staining-based flow cytometric analysis (reference value: 0.52%). The data set is classed as functional.
Data set [9] has as its target Signal transducer and activator of transcription 3 (Homo sapiens, UniProt P40763). Description: Inhibition of STAT3 (unknown origin) expressed in MDA-MB-231 cells transfected with pSTAT3-Luciferase construct assessed as reduction in STAT3 promoter activity after 24 hrs post transfection by dual luciferase reporter gene assay relative to control. It counts as cell-based. A general note: Reporter assays use an easily measured gene product as a stand-in for the process of interest.

For one compound, Activity, inhibition and viability results are on record in ChEMBL document CHEMBL4396906, “Design, synthesis and activity of novel 2,6-disubstituted purine derivatives, potential small molecule inhibitors of signal transducer and activator of transcription 3” (Eur J Med Chem, 2019).

Chain of Fibroblast growth factor receptor 4 (Homo sapiens) (P22455 22-802 limits assumed): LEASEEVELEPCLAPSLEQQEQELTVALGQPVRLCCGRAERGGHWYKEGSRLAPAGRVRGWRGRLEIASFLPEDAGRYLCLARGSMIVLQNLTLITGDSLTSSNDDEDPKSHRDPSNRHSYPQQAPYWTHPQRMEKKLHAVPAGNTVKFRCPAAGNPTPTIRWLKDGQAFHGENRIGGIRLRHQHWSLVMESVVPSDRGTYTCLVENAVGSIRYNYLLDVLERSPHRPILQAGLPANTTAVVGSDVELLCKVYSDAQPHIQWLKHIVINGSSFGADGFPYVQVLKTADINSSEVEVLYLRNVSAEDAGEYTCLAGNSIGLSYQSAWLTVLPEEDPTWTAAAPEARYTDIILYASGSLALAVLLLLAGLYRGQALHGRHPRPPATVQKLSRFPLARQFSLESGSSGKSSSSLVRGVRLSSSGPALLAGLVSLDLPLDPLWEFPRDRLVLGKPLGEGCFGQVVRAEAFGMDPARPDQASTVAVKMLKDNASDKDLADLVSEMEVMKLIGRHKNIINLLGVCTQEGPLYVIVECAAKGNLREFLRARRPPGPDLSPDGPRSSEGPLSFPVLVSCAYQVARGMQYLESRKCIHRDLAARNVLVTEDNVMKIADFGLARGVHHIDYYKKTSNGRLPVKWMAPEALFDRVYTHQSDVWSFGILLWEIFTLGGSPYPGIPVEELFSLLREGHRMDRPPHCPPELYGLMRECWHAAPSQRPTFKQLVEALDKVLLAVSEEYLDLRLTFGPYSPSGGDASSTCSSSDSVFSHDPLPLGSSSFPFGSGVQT
Chain of RAC-alpha serine/threonine-protein kinase (Homo sapiens) (P31749 whole entry): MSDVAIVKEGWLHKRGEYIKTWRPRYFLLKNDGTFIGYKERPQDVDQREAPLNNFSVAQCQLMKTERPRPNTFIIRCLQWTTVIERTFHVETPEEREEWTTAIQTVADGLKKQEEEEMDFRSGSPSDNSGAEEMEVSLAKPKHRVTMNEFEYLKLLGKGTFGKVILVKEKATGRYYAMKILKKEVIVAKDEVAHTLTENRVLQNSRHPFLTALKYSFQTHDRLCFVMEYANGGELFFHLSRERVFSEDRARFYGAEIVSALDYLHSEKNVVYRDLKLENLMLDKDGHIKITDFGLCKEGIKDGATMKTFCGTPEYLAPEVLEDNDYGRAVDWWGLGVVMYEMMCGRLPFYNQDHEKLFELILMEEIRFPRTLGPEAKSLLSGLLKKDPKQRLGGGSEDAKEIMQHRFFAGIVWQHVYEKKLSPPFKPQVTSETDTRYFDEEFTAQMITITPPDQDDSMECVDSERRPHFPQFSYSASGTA
Chain of Signal transducer and activator of transcription 3 (P40763 whole entry): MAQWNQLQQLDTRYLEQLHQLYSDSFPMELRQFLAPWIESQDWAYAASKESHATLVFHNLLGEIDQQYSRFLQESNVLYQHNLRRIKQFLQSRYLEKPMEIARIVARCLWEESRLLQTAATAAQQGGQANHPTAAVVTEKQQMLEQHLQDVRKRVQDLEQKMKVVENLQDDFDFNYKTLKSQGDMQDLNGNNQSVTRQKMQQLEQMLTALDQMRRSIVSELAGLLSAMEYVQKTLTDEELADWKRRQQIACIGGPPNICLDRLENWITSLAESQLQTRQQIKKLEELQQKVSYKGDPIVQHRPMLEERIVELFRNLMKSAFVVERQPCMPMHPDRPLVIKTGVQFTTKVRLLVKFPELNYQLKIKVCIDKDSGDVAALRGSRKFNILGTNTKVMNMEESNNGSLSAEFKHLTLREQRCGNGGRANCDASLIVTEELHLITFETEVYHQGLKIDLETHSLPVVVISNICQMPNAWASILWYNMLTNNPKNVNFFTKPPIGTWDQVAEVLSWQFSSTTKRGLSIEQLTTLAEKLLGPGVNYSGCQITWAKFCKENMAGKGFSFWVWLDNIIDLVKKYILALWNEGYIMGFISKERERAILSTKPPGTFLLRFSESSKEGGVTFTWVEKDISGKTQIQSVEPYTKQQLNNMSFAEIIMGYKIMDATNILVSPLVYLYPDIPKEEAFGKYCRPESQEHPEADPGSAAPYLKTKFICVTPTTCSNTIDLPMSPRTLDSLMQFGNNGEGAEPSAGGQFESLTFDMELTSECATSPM
Chain of Epidermal growth factor receptor (Homo sapiens) (P00533 whole entry): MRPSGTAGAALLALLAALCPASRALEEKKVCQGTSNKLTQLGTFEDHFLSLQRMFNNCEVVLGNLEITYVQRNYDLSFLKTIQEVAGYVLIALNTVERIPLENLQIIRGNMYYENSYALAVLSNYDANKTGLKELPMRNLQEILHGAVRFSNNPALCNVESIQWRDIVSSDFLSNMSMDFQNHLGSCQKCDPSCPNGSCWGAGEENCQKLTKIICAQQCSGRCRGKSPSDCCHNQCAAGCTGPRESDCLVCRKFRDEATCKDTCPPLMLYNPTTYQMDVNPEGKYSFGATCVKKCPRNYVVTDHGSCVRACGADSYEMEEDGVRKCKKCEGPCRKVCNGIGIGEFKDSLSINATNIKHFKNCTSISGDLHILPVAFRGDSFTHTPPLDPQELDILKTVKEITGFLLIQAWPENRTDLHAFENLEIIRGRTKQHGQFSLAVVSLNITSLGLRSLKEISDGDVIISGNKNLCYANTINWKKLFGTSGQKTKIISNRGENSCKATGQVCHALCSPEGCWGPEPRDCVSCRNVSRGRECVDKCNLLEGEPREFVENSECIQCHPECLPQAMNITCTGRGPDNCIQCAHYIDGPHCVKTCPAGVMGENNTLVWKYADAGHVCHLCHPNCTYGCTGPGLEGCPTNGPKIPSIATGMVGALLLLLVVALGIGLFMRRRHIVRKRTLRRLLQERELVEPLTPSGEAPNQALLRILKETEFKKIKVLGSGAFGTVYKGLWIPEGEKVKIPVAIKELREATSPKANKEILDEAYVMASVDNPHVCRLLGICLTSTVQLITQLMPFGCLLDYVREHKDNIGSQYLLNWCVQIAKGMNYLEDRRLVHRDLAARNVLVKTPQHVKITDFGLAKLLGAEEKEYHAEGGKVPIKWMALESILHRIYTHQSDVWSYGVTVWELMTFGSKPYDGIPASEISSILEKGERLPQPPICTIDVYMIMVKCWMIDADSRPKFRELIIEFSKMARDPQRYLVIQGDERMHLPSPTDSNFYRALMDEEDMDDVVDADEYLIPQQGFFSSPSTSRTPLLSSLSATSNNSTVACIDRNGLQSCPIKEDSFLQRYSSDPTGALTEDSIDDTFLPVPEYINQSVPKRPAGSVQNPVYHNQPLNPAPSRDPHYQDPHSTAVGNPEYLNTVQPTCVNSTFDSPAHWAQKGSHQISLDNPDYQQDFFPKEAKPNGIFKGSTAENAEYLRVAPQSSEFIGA

For the compound `O=C(Nc1nc(NCc2ccc(Cl)cc2)c2nc[nH]c2n1)c1ccccc1`, the Activity result in the data set on MDA-MB-231 [1] is reported as “Non-Toxic”; in the data set with MDA-MB-231 [5] it was 3.41%; with MDA-MB-231 [7] it was 9.53%; in the data set with MDA-MB-231 [8], 0.65%. For the same compound, the inhibition in data set [2] is 7.5%; in data set [3] it was 16.4%; in data set [4] it was 16.4%; in data set [9], “Dose-dependent effect”. The viability at 10 µM in the data set on MDA-MB-231 [6] worked out at 81.3%.

The inhibition is how much of the control response was suppressed.
